# Experimental data as given in patent US11779014B2, “Adjuvants” (SYNGENTA PARTICIPATIONS AG, priority 2017, dated 2023).
# Experiments:
# [1] = test system: Chenopodium album (CHEAL); test: Glasshouse adjuvancy test for nicosulfuron on CHEAL; assay type: in vivo
# Experimental: The biological efficacies of blends of an oleyl 20 ethoxylate uncapped surfactant with an oleyl 20 ethoxylate surfactant with an n-hexyl ether cap as adjuvants for the herbicide nicosulfuron were tested in a glasshouse against three weed species sown into standard soil in pots and cultivated under controlled conditions in a glasshouse (24/18° C. day/night; 16 hours light; 65% humidity). Nicosulfuron was added to the spray tank as a standard WG (water dispersible granule) formulation. The plants were sprayed with nicosulfuron at rates of 15 or 60 grams of pesticide per hectare using a laboratory track sprayer which delivered the aqueous spray composition at a rate of 200 litres per hectare, using a flat fan nozzle (Teejet 11002VS) at 2 bar. The adjuvants were added to the spray solution at a total rate of 0.1 or 0.2% w/v in all cases and at extra lower rates for the oleyl 20EO alone and its 1:1 blend with the oleyl 20EO n-hexyl ether to show the dose response to these adjuvants. All spray solutions also contained 10% w/w of iso-propanol. The weed species and their BBCH growth stage at spraying were Chenopodium album (CHEAL; growth stage 15), Digitaria sanguinalis (DIGSA; growth stage 14), and Commelina benghalensis (COMBE; growth stage 14). Each spray test was replicated three times. The test plants were then grown in a glasshouse under controlled conditions (24/18° C. day/night; 16 hours light; 65% humidity) and watered twice a day. The efficacy of the herbicide was assessed visually and expressed as a percentage of the leaf area killed. Samples were assessed at a time period of 21 days following application. The following tables (3-8) show the effect of blends of the two surfactants at a total concentration of 0.2 and 0.1%. In each case the blends were 1:0, 3:1, 1:1, 1:3 and 0:1 w/w of oleyl 20EO:oleyl 20 EO n-hexyl ether.
# The biological efficacies of blends of oleyl 20 ethoxylate and oleyl 20EO ethoxylate with a benzoate cap as adjuvants for the herbicide nicosulfuron were tested in a glasshouse using the same method as for ‘Example 1’ but against just two weed species and with just 0.2% w/v total adjuvant concentration. The weed species and their BBCH growth stage at spraying HI were Chenopodium album (CHEAL; growth stage 13-15) and Digitaria sanguinalis (DIGSA; growth stage 14-22).
# The biological efficacies of 1:1 blends of an oleyl 20 ethoxylate uncapped surfactant with oleyl 20E ethoxylate surfactants with hexanoyl, n-octanoyl or 2-ethyl hexanoyl ester caps as adjuvants for the herbicide nicosulfuron were tested in a glasshouse using the same method as for ‘Example 1’ but against just one weed species and at 0.2% w/v tital adjuvant concentration. The weed species and its BBCH growth stage at spraying was Chenopodium album (CHEAL; growth stage 15).
# [2] = De-gelling temperature of aqueous surfactant blends by low shear rheology (Bohlin Gemini rheometer, storage modulus vs temperature); assay type: physicochemical; details: for Degelling temperature: Table 18
# Experimental: The temperatures at which blends of capped and uncapped surfactants de-gel were determined by standard low shear rheology with a Bohlin™ Gemini rheometer. The storage modulus (G′) at 1 Hz was determined at a strain of 0.001-0.002 in a standard C14 cup and bob geometry over a temperature range of 5-70° C., the exact range depending on the de-gelling point of the sample. Plots of storage modulus versus temperature were constructed and the de-gelling temperature was taken to be the point at which the modulus begins to fall rapidly from its high value in the gelled state (typically ca. 10^5 Pa) down to the final value in the de-gelled state (less than 10 Pa). Blends of surfactants were prepared at from 25 to 40% w/w total surfactant concentration in water. Samples were left in an oven at 55° C. for several days to ensure that the mixtures were homogeneous. Samples were placed in the C14 cup and the samples were de-gelled by raising the temperature in the rheometer, the bob was then inserted and the sample was then cooled at 1° C./min, whilst the storage modulus was regularly recorded during the cooling. Once the final temperature had been reached (i.e. when the sample had gelled), the temperature was then increased again and the modulus again recorded. The de-gelling temperature was determined from the increasing temperature cycle.
# Degelling temperatures—the measurements relied on the same method as for ‘Example 1’ but just at 30% w/w total surfactant concentration.
# De-gelling temperatures were measured using the same method as in Example 1.
# This example provides de-gelling, cloud point and adjuvancy data for dodecyl 23 ethoxylate with n-hexyl cap and hexadecyl 20 ethoxylate with n-hexyl cap Cloud points were measured as described in example 1 for 1% aqueous solutions of the capped and uncapped surfactants both individually and as blends (see Table 30). Degelling temperatures were also measured as outlined in example 1 for 25, 30, 35 and 40% aqueous solutions of the capped and uncapped surfactants both individually and as blends (see Table 31).
# This example provides de-gelling, cloud point and adjuvancy data for oleyl 20 ethoxylate with n-butyl, n-pentyl or benzyl ether caps end capped oleyl 20 ethoxylate. Cloud points were measured as described in example 1 for 1% aqueous solutions of the capped and uncapped surfactants both individually and as blends. Degelling temperatures were also measured as outlined in example 1 for 25, 30, 35 and 40% aqueous solutions o of the capped and uncapped surfactants both individually and as blends.
# Setaria viridis (SETVI) = test: Glasshouse adjuvancy test for pinoxaden on SETVI; assay type: in vivo; details: total surfactant 0.2% w/v, 21 days
# Experimental: Pinoxaden was added to the spray tank as a standard EC (emulsifiable concentrate) formulation. The plants were sprayed with pinoxaden at rates of 7.5 or 15 grams of pesticide per hectare using a laboratory track sprayer which delivered the aqueous spray composition at a rate of 200 litres per hectare, using a flat fan nozzle (Teejet 11002VS) at 2 bar. The spray solutions also contained the oleyl 20EO alone or in the 1:1 blends with the capped surfactants. The adjuvants were added to the spray solution at a total surfactant rate of 0.2% w/v. All spray solutions also contained 10% w/w of iso-propanol. The weed species and their BBCH growth stage at spraying were Avena fatua (AVEFA; growth stage 13) and Setaria viridis (SETVI; growth stage 13). Each spray test was replicated three times. The test plants were then grown in a glasshouse under controlled conditions (20/16° C. day/night; 16 hours light; 65% humidity) and watered twice a day. The efficacy of the herbicide was assessed visually and expressed as a percentage of the leaf area killed. Samples were assessed at a time period of 21 days following application.
# [3] = nicosulfuron 15 g ai/ha, 0.1% total surfactant concentration, 21 days, Table 6
# [4] = nicosulfuron 15 g ai/ha, 0.2% total surfactant concentration, 21 days, Table 5
# [5] = nicosulfuron 60 g ai/ha, 0.1% total surfactant concentration, 21 days, Table 6
# [6] = nicosulfuron 60 g ai/ha, 0.2% total surfactant concentration, 21 days, Table 5
# [7] = total surfactant concentration 25% w/w in water, Table 1
# [8] = total surfactant concentration 30% w/w in water, Table 1
# [9] = total surfactant concentration 35% w/w in water, Table 1
# [10] = total surfactant concentration 40% w/w in water, Table 1
compound,measurement,setting,value
Oleyl 20EO n-hexyl ether,Mean control,[1]; [3],85%
same,Mean control,[1]; [4],81.7%
same,Mean control,[1]; [5],85%
same,Mean control,[1]; [6],88.3%
same,De-gelling temperature,[2]; [7],5.0 °C
same,De-gelling temperature,[2]; [8],5.0 °C
same,De-gelling temperature,[2]; [9],5.0 °C
same,De-gelling temperature,[2]; [10],16.7 °C
"CCCCCCCC/C=C\CCCCCCCCOCCOCCOCCOCCOCCOCCOCCOCCOCCOCCOCCOCCOCCOCCOCCOCCOCCOCCOCCOCCO [Oleyl 20EO, oleyl 20 ethoxylate]",Mean control,Setaria viridis (SETVI); pinoxaden 7.5 g ai/ha,98.0%
same,Mean control,Setaria viridis (SETVI); pinoxaden 15 g ai/ha,98.3%
same,Mean control,"[1]; dose response, nicosulfuron 15 g ai/ha, adjuvant 0.05%",81.7%
same,Mean control,"[1]; dose response, nicosulfuron 15 g ai/ha, adjuvant 0.1%",86.7%
same,Mean control,"[1]; dose response, nicosulfuron 15 g ai/ha, adjuvant 0.2%",83.3%
same,Mean control,"[1]; dose response, nicosulfuron 60 g ai/ha, adjuvant 0.05%",83.3%
same,Mean control,"[1]; dose response, nicosulfuron 60 g ai/ha, adjuvant 0.1%",80.0%
same,Mean control,"[1]; dose response, nicosulfuron 60 g ai/ha, adjuvant 0.2%",80.0%
same,Mean control,[1]; [3],86.7%
same,Mean control,[1]; [4],83.3%
same,Mean control,"[1]; nicosulfuron 15 g ai/ha, 0.2% w/v total adjuvant, Example 3, growth stage 13-15",66.7%
same,Mean control,"[1]; nicosulfuron 15 g ai/ha, 0.2% w/v total adjuvant, Example 4, growth stage 15",76.8%
same,Mean control,[1]; [5],80%
same,Mean control,[1]; [6],80%
same,Mean control,"[1]; nicosulfuron 60 g ai/ha, 0.2% w/v total adjuvant, Example 3, growth stage 13-15",68.3%
same,Mean control,"[1]; nicosulfuron 60 g ai/ha, 0.2% w/v total adjuvant, Example 4, growth stage 15",71.7%
same,De-gelling temperature,"[2]; 30% w/w total surfactant concentration, Table 15",42.4 °C
same,De-gelling temperature,"[2]; 40% w/w, Table 19",66.3 °C
same,De-gelling temperature,[2]; [7],26.9 °C
same,Degelling temperature,[2]; total surfactant concentration 25% w/w,26.9 °C
same,De-gelling temperature,"[2]; total surfactant concentration 25% w/w, Table 35",23.3 °C
same,De-gelling temperature,[2]; [8],45.2 °C
same,Degelling temperature,[2]; total surfactant concentration 30% w/w,45.2 °C
same,De-gelling temperature,"[2]; total surfactant concentration 30% w/w, Table 35",40.9 °C
same,De-gelling temperature,[2]; [9],51.3 °C
same,Degelling temperature,[2]; total surfactant concentration 35% w/w,51.3 °C
same,De-gelling temperature,"[2]; total surfactant concentration 35% w/w, Table 35",56.7 °C
same,De-gelling temperature,[2]; [10],70.6 °C
same,Degelling temperature,[2]; total surfactant concentration 40% w/w,70.6 °C
same,De-gelling temperature,"[2]; total surfactant concentration 40% w/w, Table 35",63.1 °C
